Assay results from ChEMBL document CHEMBL1158077, “Microbial transformation and butyrylcholinesterase inhibitory activity of (-)-caryophyllene oxide and its derivatives” (J Nat Prod, 2006).

Molecular target: Cholinesterase (Equus caballus, UniProt P81908)
Assay: Inhibition of horse serum BuChE by Ellman's method

Chain of Cholinesterase (P81908 whole entry): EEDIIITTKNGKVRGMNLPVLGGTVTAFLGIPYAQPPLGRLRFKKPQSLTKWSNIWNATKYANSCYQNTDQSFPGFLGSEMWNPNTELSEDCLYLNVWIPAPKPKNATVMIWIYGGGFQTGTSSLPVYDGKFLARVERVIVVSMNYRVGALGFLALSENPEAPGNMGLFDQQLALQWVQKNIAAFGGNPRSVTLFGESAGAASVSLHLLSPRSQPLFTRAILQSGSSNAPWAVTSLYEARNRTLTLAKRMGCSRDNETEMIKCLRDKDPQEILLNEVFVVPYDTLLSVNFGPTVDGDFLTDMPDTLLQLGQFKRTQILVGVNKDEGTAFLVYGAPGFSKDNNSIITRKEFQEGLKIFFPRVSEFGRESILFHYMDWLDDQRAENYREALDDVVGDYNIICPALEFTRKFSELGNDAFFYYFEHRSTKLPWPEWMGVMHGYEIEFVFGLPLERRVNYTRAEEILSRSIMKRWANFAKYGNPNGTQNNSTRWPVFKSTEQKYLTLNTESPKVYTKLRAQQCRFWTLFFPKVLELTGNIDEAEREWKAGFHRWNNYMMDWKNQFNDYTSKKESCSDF

Structure (SMILES)	IC50
CC1(C)C[C@H](O)[C@]23CC[C@@H](O)[C@](C)(CC[C@@H]12)C3	456 µM
C=C1CC[C@@H](O)[C@](C)(O)CC[C@@H]2[C@@H]1CC2(C)C	44 µM
CC1(C)C[C@@H]2[C@@H](CO)CC[C@H]3O[C@]3(C)CC[C@H]21	26.4 µM
CC1(C)C[C@H](O)[C@]23CC[C@@H](O)[C@](CO)(CC[C@@H]12)C3	43.6 µM
CC1(C)C[C@@H]2[C@@H](CO)CC[C@H]3O[C@]3(C)[C@H](O)C[C@H]21	155 µM
C=C1CC[C@H]2O[C@]2(C)CC[C@@H]2[C@@H]1C[C@@]2(C)CO	189 µM
C=C1CC[C@@H]2O[C@]2(C)CC[C@@H]2[C@@H]1CC2(C)C	208 µM
CC1(C)C[C@H]2[C@H]1CC[C@]1(C)[C@H](O)CC[C@@]2(O)[C@H]1O	23.6 µM
CC1(C)C[C@@H]2C(=O)CC[C@H]3O[C@]3(C)C[C@H](O)[C@H]21	459 µM
C=C1CC[C@H]2O[C@]2(C)CC[C@@H]2[C@@H]1C[C@]2(C)CO	10.9 µM
